Test results: patent US20260097047A1, “Small molecule inhibitors of the ribosome biogenesis factor NVL2” (Board of Regents, The University of Texas System, priority 2023, published 2026)

What follows are compounds tested on HCT116 cells (assay: Cell viability assay (CellTiter-Glo, 72 hours) in HCT116 human colorectal cancer cells). Conditions: Homo sapiens, HCT-116; Table 5; HCT116, 72 hours; read-out: Activity.
Format: cell-based
Protocol: Cell culture: The HCT116 cell line was obtained from ATCC and cultured in Dulbecco's Modified Eagle's Medium (DMEM)-high glucose (Sigma Aldrich #D5796) supplemented with 10% fetal bovine serum (FBS) (Sigma-Aldrich #F2442) and 2 mM L-Glutamine (Sigma Aldrich #G7513). Cells were cultured at 37° C. in 5% CO2. The identity of all cell lines was confirmed by short tandem repeat (STR) analysis and confirmed to be mycoplasma-free using a PCR based assay (Genatlantis).
Cell viability assay: In 96-well assay plates (Corning #2903), 2,000 cells were plated per well in 100 μL of medium and allowed to adhere overnight. The next day, compounds suspended in DMSO were dispensed to the assayed wells using a D300e Digital Dispenser (Tecan). All wells were normalized to 0.5% DMSO. 72 hours after incubation at 37° C. in 5% CO2, cell viability was assayed using an ATP-based luminescent viability assay, CellTiter-Glo (Promega #G8462). Substrate was mixed 1:1 with phosphate-buffered saline (PBS) supplemented with 1% Triton X-100, and 40 μL of this mixture was added to the assay wells. Plates were shaken on a microplate shaker for 10 minutes at room temperature. Luminescence (CellTiter-Glo) was recorded using a Synergy 2 microplate reader (BioTek). In Prism 9 software (GraphPad), ten-point dose response curves were plotted with baseline-correction to the vehicle control well, and IC50 values were calculated by curve fitting using asymmetric (five parameter), least squares fit.

Row | Compound | IC50 [nM]
1 | CCC/C=C/CN1C(=O)c2ccccc2Sc2cc(Nc3nccnc3C)ccc21 [(E)-10-(Hex-2-en-1-yl)-7-((3-methylpyrazin-2-yl)amino)dibenzo[b,f][1,4]thiazepin-11 (10H)-one] | < 500
2 | CC#CCN1C(=O)c2ccc(F)cc2Sc2cc(Nc3ncccc3C3CC3)ccc21 [10-(But-2-yn-1-yl)-7-((3-cyclopropylpyridin-2-yl)amino)-3-fluorodibenzo[b,f][1,4]thiazepin-11 (10H)-one] | < 500
3 | CC#CCN1C(=O)c2ccccc2Sc2cc(Nc3ncc(C)cc3C)ccc21 [10-(But-2-yn-1-yl)-7-((3,5-dimethylpyridin-2-yl)amino)dibenzo[b,f][1,4]thiazepin-11 (10H)-one] | < 500
4 | CCC/C=C/CN1C(=O)c2ccccc2Sc2cc(Nc3cc(C(C)C)ccn3)ccc21 [(E)-10-(Hex-2-en-1-yl)-7-((4-isopropylpyridin-2-yl)amino)dibenzo[b,f][1,4]thiazepin-11 (10H)-one] | < 500
5 | CC#CCN1C(=O)c2ccccc2Sc2cc(Nc3ncccc3C(F)(F)F)ccc21 [10-(But-2-yn-1-yl)-7-((3-(trifluoromethyl)pyridin-2-yl)amino)dibenzo[b,f][1,4]thiazepin-11 (10H)-one] | < 500
6 | CC#CCN1C(=O)c2ccccc2Cc2cc(Nc3ncnc(C#N)c3C)ccc21 [6-((5-(But-2-yn-1-yl)-6-oxo-6,11-dihydro-5H-dibenzo[b,e]azepin-2-yl)amino)-5-methylpyrimidine-4-carbonitrile] | < 500
7 | CC#CCN1C(=O)c2ccc(F)cc2Sc2cc(Nc3ncccc3C#N)ccc21 [2-((10-(But-2-yn-1-yl)-3-fluoro-11-oxo-10,11-dihydrodibenzo[b,f][1,4]thiazepin-7-yl)amino) nicotinonitrile] | < 500

Same assay, conditions: Homo sapiens, HCT-116; Table 6; HCT116, 72 hours; read-out: Activity

Row | Compound | IC50 [nM]
8 | CC#CCN1C(=O)c2ccccc2Sc2cc(NC3CCCC3)cnc21 [Table 6: —CH2CCMe; cPent; CH/N; S, 11-(But-2-yn-1-yl)-3-(cyclopentylamino)benzo[f]pyrido[3,2-b][1,4]thiazepin-10(11H)-one] | < 500

Same assay, conditions: Homo sapiens, HCT-116; read-out: IC50s (cellular activity of MM017 derivatives)

Row | Compound | IC50 [nM]
9 | COCCN1C(=O)c2ccccc2Sc2cc(NC(=O)c3ccccc3OC)ccc21 [compound 5] | 13000

Same assay, conditions: Table 3; HCT116, 72 hours; read-out: Activity

Row | Compound | IC50 [nM]
10 | CC#CCN1C(=O)c2ccccc2Sc2cc(NC(=O)Nc3cccc(OC)c3)ccc21 [Table 3: —CH2CCMe; 3-MeOPh; CH/CH] | < 500
11 | CC#CCN1C(=O)c2ccccc2Sc2cc(NC(=O)Nc3ccc4oc(=O)n(C)c4c3)ccc21 | < 500

Same assay, conditions: Table 4; HCT116, 72 hours; read-out: Activity

Row | Compound | IC50 [nM]
12 | CC#CCN1C(=O)c2ccccc2Sc2cc(NC(=S)Nc3ccc4oc(=O)n(C)c4c3)ccc21 | < 500
13 | CC#CCN1C(=O)c2ccccc2Sc2cc(NC(=S)NC3COC3)cnc21 [Table 4: —CH2CCMe; oxetan-3-yl; N] | < 500
14 | CC#CCN1C(=O)c2ccccc2Sc2cc(NC(=S)Nc3cccc(OCF)c3)cnc21 [Table 4: —CH2CCMe; 3-FH2COPh; N] | < 500

Same assay, conditions: Table 5; HCT116, 72 hours; read-out: Activity

Row | Compound | IC50 [nM]
15 | CC#CCN1C(=O)c2ccccc2Sc2cc(Nc3nnccc3C#N)cnc21 | < 500
16 | CCCC=CCN1C(=O)c2ccccc2Sc2cc(Nc3nccnc3C)cnc21 | < 500
17 | CC#CCN1C(=O)c2ccccc2Sc2cc(Nc3ncc(C)cc3F)cnc21 | < 500
18 | C#CCN1C(=O)c2ccccc2Sc2cc(Nc3ncc(C)nc3C)ccc21 | < 500
19 | CCCC=CCN1C(=O)c2ccccc2Sc2cc(Nc3ncc(C)cc3C)cnc21 | < 500
20 | CC#CCN1C(=O)c2ccccc2Sc2cc(Nc3cc(C)cnn3)cnc21 | < 500
21 | O=C1c2ccccc2Sc2cc(Nc3cccnn3)ccc2N1CC#CCl | < 500

Same assay, conditions: Table 6; HCT116, 72 hours; read-out: Activity

Row | Compound | IC50 [nM]
22 | CC#CCN1C(=O)c2ccccc2Cc2cc(NC3CC(CO)C3)ccc21 (stereo not drawn) | < 500
23 | CC#CCN1C(=O)c2ccccc2Sc2cc(NC3CCCOC3)cnc21 (stereo not drawn) | < 500
24 | CC#CCN1C(=O)c2ccccc2Sc2cc(NC3CC4(COC4)C3)cnc21 | < 500
25 | O=C1c2ccccc2Sc2cc(NC3CC4(COC4)C3)cnc2N1CC#CCl | < 500
26 | O=C1c2ccccc2Sc2cc(NC3CC(O)C3)ccc2N1CC#CCl (stereo not drawn) [Table 6: —CH2CCCl; 3-HOcBu; CH/CH; S] | < 500
27 | C#CCN1C(=O)c2ccccc2Sc2cc(NC3CC(OC)C3)cnc21 (stereo not drawn) [Table 6: —CH2CCH; 3-MeOcBu; CH/N; S] | < 500
28 | C#CCN1C(=O)c2ccccc2Sc2cc(NC3CC(COC)C3)ccc21 (stereo not drawn) [Table 6: —CH2CCH; 3-MeOCH2-cBu; CH/CH; S] | < 500

Same assay, conditions: Table 7; cell viability assay, CellTiter-Glo, 72 hours; scaffold drawing 42 with R^2, R^3, X/Y, Z; read-out: Activity

Row | Compound | IC50 [nM]
29 | COCCN1C(=O)c2ccccc2Sc2cc(NC(=O)C3CC(=O)C3)ccc21 [—(CH2)2OMe; 3-oxo-cBu; CH/CH; S] | 1000 to 5000
30 | CC=CCN1C(=O)c2ccccc2Sc2cc(NC(=O)c3ccc4scnc4c3)ccc21 | < 500
31 | COCCN1C(=O)c2ccccc2Sc2cc(NC(=O)c3ccc(OC(F)F)c(F)c3)ccc21 [—(CH2)2OMe; 3-F,4-F2HCOPh; CH/CH; S] | 1000 to 5000
32 | COCCN1C(=O)c2ccccc2Sc2cc(NC(=O)c3cccc(C(N)=O)c3)ccc21 [—(CH2)2OMe; 3-H2NC(O)Ph; CH/CH; S] | 1000 to 5000
33 | COCCN1C(=O)c2ccc(F)cc2Sc2cc(NC(=O)c3ccoc3)ccc21 [—(CH2)2OMe; furan-3-yl; CF/CH; S] | < 500
34 | COCCN1C(=O)c2ccccc2Sc2cc(NC(=O)c3ccc(Cl)c(OC)c3)ccc21 [—(CH2)2OMe; 3-MeO,4-ClPh; CH/CH; S] | 500 to 1000

Same assay, conditions: Table 8; analogs of scaffold drawing 43 defined by R^2, R^3, X/Y, W; read-out: Activity (IC50 class, cell viability assay)

Row | Compound | IC50 [nM]
35 | O=C(Nc1cnc2c(c1)Sc1cc(Cl)ccc1C(=O)N2CC#CCl)C1CC1CO (stereo not drawn) [—CH2CCCl; trans-2-HOCH2-cPr; CCl/CH; N] | < 500
36 | O=C(Nc1ccc2c(c1)Sc1ccccc1C(=O)N2CC#CC1CC1)C1CC2(COC2)C1 | < 500
37 | C#CCN1C(=O)c2cc(F)ccc2Sc2cc(NC(=O)C3CC4(CC(=NO)C4)C3)ccc21 (stereo not drawn) | < 500
38 | O=C1c2ccccc2Sc2cc(NC(=O)C34CC(C3)C4)cnc2N1CC#CC1CC1 | < 500
39 | CC#CCN1C(=O)c2cc(F)ccc2Sc2cc(NC(=O)C3CC3C(=O)OC)ccc21 (racemic) [—CH2CCMe; trans-2-MeO2C-cPr; CH/CF; CH] | < 500
40 | CC#CCN1C(=O)c2ccccc2Sc2cc(NC(=O)C3CCCO3)ccc21 (stereo not drawn) | < 500
41 | CC#CCN1C(=O)c2ccccc2Sc2cc(NC(=O)C34CC(O)(C3)C4)cnc21 | < 500
42 | COCC1CC1C(=O)Nc1cnc2c(c1)Sc1ccccc1C(=O)N2CC#CC1CC1 (racemic) [—CH2CC^cPr; trans-2-MeOCH2-cPr; CH/CH; N] | < 500
43 | CC#CCN1C(=O)c2ccc(Cl)cc2Sc2cc(NC(=O)C3CC4(CC(=O)C4)C3)ccc21 | < 500
44 | COCC=CC(=O)Nc1cnc2c(c1)Sc1ccccc1C(=O)N2CC#CC1CC1 [—CH2CC^cPr; CH═CHCH2OMe; CH/CH; N] | < 500
45 | CC#CCN1C(=O)c2ccccc2Sc2cc(NC(=O)C3CCN(C)C3)ccc21 (stereo not drawn) | 1000 to 5000
46 | CC#CCN1C(=O)c2ccc(Cl)cc2Sc2cc(NC(=O)NCCOC)cnc21 [—CH2CCMe; NH(CH2)2OMe; CCl/CH; N] | < 500
47 | COC[C@@H]1C[C@H]1C(=O)Nc1ccc2c(c1)Sc1cc(Cl)ccc1C(=O)N2CC#CCl (relative stereo) [—CH2CCCl; trans-2-MeOCH2-cPr; CCl/CH; CH] | < 500
48 | CC#CCN1C(=O)c2cc(F)ccc2Sc2cc(NC(=O)C3CC4(CC(=O)C4)C3)ccc21 | < 500
49 | CC#CCN1C(=O)c2ccccc2Sc2cc(NC(=O)C3CC4(CCC4)C3)ccc21 | < 500
50 | CC#CCN1C(=O)c2ccc(F)cc2Sc2cc(NC(=O)c3ccc4oc(=O)n(C)c4c3)ccc21 | < 500
51 | C#CCN1C(=O)c2cc(F)ccc2Sc2cc(NC(=O)C3CC4(CC(=NOC)C4)C3)ccc21 (stereo not drawn) | < 500
52 | CC#CCN1C(=O)c2ccc(F)cc2Sc2cc(NC(=O)C3CCCO3)cnc21 (stereo not drawn) [—CH2CCMe; tetrahydrofuran-2-yl; CF/CH; N] | < 500
53 | CC#CCN1C(=O)c2ccccc2Sc2cc(NC(=O)C3CCCC3)cnc21 [—CH2CCMe; cPent; CH/CH; N] | < 500
54 | CO[C@H]1C[C@H](C(=O)Nc2cnc3c(c2)Sc2ccccc2C(=O)N3CC#CC2CC2)C1 [—CH2CC^cPr; trans-3-MeOcBu; CH/CH; N] | < 500

Same assay, conditions: Table 9; HCT116, 72 hours; read-out: Activity

Row | Compound | IC50 [nM]
55 | CC#CCN1C(=O)c2ccccc2C(C)(O)c2cc(NC(=O)[C@H]3C[C@@H](OC)C3)ccc21 (stereo partly drawn) [Table 9: —CH2CCMe; cis-3-MeOcBu; CMeOH] | < 500
56 | CO[C@H]1C[C@H](C(=O)Nc2ccc3c(c2)C(C)(O)c2ccccc2C(=O)N3CC#CC2CC2)C1 (stereo partly drawn) | < 500
57 | COCCNC(=O)Nc1ccc2c(c1)C(C)c1ccccc1C(=O)N2CC#CC1CC1 (stereo not drawn) [Table 9: —CH2CC^cPr; NH(CH2)2OMe; CHMe] | < 500
58 | CC#CCN1C(=O)c2ccccc2C(C)c2cc(NC(=O)C34CC(O)(C3)C4)ccc21 (stereo not drawn) | < 500
59 | CC#CCN1C(=O)c2ccccc2C(C#N)c2cc(NC(=O)[C@H]3C[C@H](OC)C3)ccc21 (stereo partly drawn) [Table 9: —CH2CCMe; trans-3-MeOcBu; CHCN] | < 500
60 | CC#CCN1C(=O)c2ccccc2C(C)c2cc(NC(=O)C3CC(COC)C3)ccc21 (stereo not drawn) [Table 9: —CH2CCMe; 3-MeOCH2-cBu; CHMe] | < 500
